Experimental data published in publication PMC4890880 (ACS infectious diseases, 2016).
pIC50: −log10 of the molar value.

What follows are compounds tested on HepG2-A16-CD81EGFP cells (assay: cells). Conditions: Homo sapiens, HepG2, read-out: HepG2 Tox% @ 50 uM rep1.

Point of comparison: Cc1ccc(S(=O)(=O)c2c(COC(=O)c3cccc(C)c3)c(-c3ccccc3)nn2C)cc1 [MMV665936], cytotoxicity at 50 µM 27%. Against it:
- O=C(Nc1ccc(CN2CCOCC2)cc1)c1ccc(-c2ccc(Br)cc2)o1 [MMV665901] — higher, 101%
- Cc1ccc(-c2cc(C(=O)Nc3ccc(S(=O)(=O)N4CCCCC4)cc3)[nH]n2)c(O)c1 [MMV665906] — lower, -10%
- O=C(Nc1nc(-c2ccccn2)cs1)c1ccccc1Br [MMV665909] — higher, 79%
- O=C1c2ccccc2-c2nnc(-c3ccc(Br)cc3)cc21 [MMV665934] — lower, -9%
- CN(C)c1ccc(C(O)(c2ccc(N(C)C)cc2)c2ccc(N(C)C)cc2)cc1 [MMV665941] — higher, 95%
- Nc1ccc(-c2nc3cc(Cc4ccc5[nH]c(-c6ccc(N)cc6)nc5c4)ccc3[nH]2)cc1 [MMV665943] — higher, 99%
- CC(C)=CCN1CCC(C(=O)Nc2ccc(-c3nc4ccccc4[nH]3)cc2)CC1 [MMV665946] — higher, 98%
- O=C(Nc1ccc(F)c(Cl)c1)Nc1ccc(Cl)c(Cl)c1 [MMV665953] — higher, 97%
- COc1cccc(C(=O)NC(c2ccc(C)cc2)c2cc(Cl)c3cccnc3c2O)c1 (stereo not shown) [MMV665969] — higher, 92%

Same assay, conditions: Homo sapiens, HepG2, read-out: HepG2 Tox% @ 50 uM rep2

Point of comparison: O=C(Nc1ccc(F)c(Cl)c1)Nc1ccc(Cl)c(Cl)c1 [MMV665953], cytotoxicity at 50 µM 98%. Against it:
- O=C(Nc1ccc(CN2CCOCC2)cc1)c1ccc(-c2ccc(Br)cc2)o1 [MMV665901] — higher, 102%
- Cc1ccc(-c2cc(C(=O)Nc3ccc(S(=O)(=O)N4CCCCC4)cc3)[nH]n2)c(O)c1 [MMV665906] — lower, -5%
- O=C(Nc1nc(-c2ccccn2)cs1)c1ccccc1Br [MMV665909] — lower, 86%
- CN(C)c1ccc(C(O)(c2ccc(N(C)C)cc2)c2ccc(N(C)C)cc2)cc1 [MMV665941] — lower, 97%
- CC(C)=CCN1CCC(C(=O)Nc2ccc(-c3nc4ccccc4[nH]3)cc2)CC1 [MMV665946] — higher, 99%

Same assay, conditions: Homo sapiens, HepG2, read-out: Tox IC50

Point of comparison: Nc1ccc(-c2nc3cc(Cc4ccc5[nH]c(-c6ccc(N)cc6)nc5c4)ccc3[nH]2)cc1 [MMV665943], pIC50 4.84. Against it:
- CN(C)c1ccc(C(O)(c2ccc(N(C)C)cc2)c2ccc(N(C)C)cc2)cc1 [MMV665941] — 0.80 log units higher, 5.64
- O=C(Nc1ccc(F)c(Cl)c1)Nc1ccc(Cl)c(Cl)c1 [MMV665953] — 0.46 log units higher, 5.30
- COc1cccc(C(=O)NC(c2ccc(C)cc2)c2cc(Cl)c3cccnc3c2O)c1 (stereo not shown) [MMV665969] — 0.48 log units higher, 5.32

Same assay, conditions: Homo sapiens, HepG2, read-out: Tox max inhibition (%) @ 50 uM

Point of comparison: Nc1ccc(-c2nc3cc(Cc4ccc5[nH]c(-c6ccc(N)cc6)nc5c4)ccc3[nH]2)cc1 [MMV665943], inhibition at 50 µM 95%. Against it:
- CN(C)c1ccc(C(O)(c2ccc(N(C)C)cc2)c2ccc(N(C)C)cc2)cc1 [MMV665941] — higher, 96%
- O=C(Nc1ccc(F)c(Cl)c1)Nc1ccc(Cl)c(Cl)c1 [MMV665953] — higher, 99%
- COc1cccc(C(=O)NC(c2ccc(C)cc2)c2cc(Cl)c3cccnc3c2O)c1 (stereo not shown) [MMV665969] — lower, 89%

The compounds below were run on Plasmodium berghei (Pb-Luc) exoerythrocytic-stage parasites (assay: microbe, parasite or virus in culture). Conditions: read-out: Inhibition% @ 50 uM rep1.

Point of comparison: CN(C)c1ccc(C(O)(c2ccc(N(C)C)cc2)c2ccc(N(C)C)cc2)cc1 [MMV665941], inhibition at 50 µM 102%. Against it:
- O=C(Nc1ccc(CN2CCOCC2)cc1)c1ccc(-c2ccc(Br)cc2)o1 [MMV665901] — higher, 104%
- Cc1ccc(-c2cc(C(=O)Nc3ccc(S(=O)(=O)N4CCCCC4)cc3)[nH]n2)c(O)c1 [MMV665906] — lower, -12%
- O=C(Nc1nc(-c2ccccn2)cs1)c1ccccc1Br [MMV665909] — lower, 98%
- O=C1c2ccccc2-c2nnc(-c3ccc(Br)cc3)cc21 [MMV665934] — lower, 1.49%
- Cc1ccc(S(=O)(=O)c2c(COC(=O)c3cccc(C)c3)c(-c3ccccc3)nn2C)cc1 [MMV665936] — the same, 102%
- Nc1ccc(-c2nc3cc(Cc4ccc5[nH]c(-c6ccc(N)cc6)nc5c4)ccc3[nH]2)cc1 [MMV665943] — higher, 103%
- CC(C)=CCN1CCC(C(=O)Nc2ccc(-c3nc4ccccc4[nH]3)cc2)CC1 [MMV665946] — lower, 100%
- O=C(Nc1ccc(F)c(Cl)c1)Nc1ccc(Cl)c(Cl)c1 [MMV665953] — higher, 103%
- COc1cccc(C(=O)NC(c2ccc(C)cc2)c2cc(Cl)c3cccnc3c2O)c1 (stereo not shown) [MMV665969] — higher, 104%

Same assay, conditions: read-out: Inhibition% @ 50 uM rep2

Point of comparison: O=C(Nc1nc(-c2ccccn2)cs1)c1ccccc1Br [MMV665909], inhibition at 50 µM 98%. Against it:
- O=C(Nc1ccc(CN2CCOCC2)cc1)c1ccc(-c2ccc(Br)cc2)o1 [MMV665901] — higher, 106%
- Cc1ccc(-c2cc(C(=O)Nc3ccc(S(=O)(=O)N4CCCCC4)cc3)[nH]n2)c(O)c1 [MMV665906] — lower, 30%
- O=C1c2ccccc2-c2nnc(-c3ccc(Br)cc3)cc21 [MMV665934] — lower, 29%
- Cc1ccc(S(=O)(=O)c2c(COC(=O)c3cccc(C)c3)c(-c3ccccc3)nn2C)cc1 [MMV665936] — higher, 103%
- CN(C)c1ccc(C(O)(c2ccc(N(C)C)cc2)c2ccc(N(C)C)cc2)cc1 [MMV665941] — higher, 104%
- Nc1ccc(-c2nc3cc(Cc4ccc5[nH]c(-c6ccc(N)cc6)nc5c4)ccc3[nH]2)cc1 [MMV665943] — higher, 104%
- CC(C)=CCN1CCC(C(=O)Nc2ccc(-c3nc4ccccc4[nH]3)cc2)CC1 [MMV665946] — higher, 101%
- O=C(Nc1ccc(F)c(Cl)c1)Nc1ccc(Cl)c(Cl)c1 [MMV665953] — higher, 102%
- COc1cccc(C(=O)NC(c2ccc(C)cc2)c2cc(Cl)c3cccnc3c2O)c1 (stereo not shown) [MMV665969] — higher, 104%

Same assay, conditions: read-out: PbLuc IC50, dose response, 1/3 dilutions, max conc. 10 or 50 uM, unit inferred

Point of comparison: Nc1ccc(-c2nc3cc(Cc4ccc5[nH]c(-c6ccc(N)cc6)nc5c4)ccc3[nH]2)cc1 [MMV665943], pIC50 5.00. Against it:
- CN(C)c1ccc(C(O)(c2ccc(N(C)C)cc2)c2ccc(N(C)C)cc2)cc1 [MMV665941] — 0.77 log units higher, 5.77
- O=C(Nc1ccc(F)c(Cl)c1)Nc1ccc(Cl)c(Cl)c1 [MMV665953] — 1.07 log units higher, 6.07
- COc1cccc(C(=O)NC(c2ccc(C)cc2)c2cc(Cl)c3cccnc3c2O)c1 (stereo not shown) [MMV665969] — 0.78 log units higher, 5.78

Same assay, conditions: read-out: PbLuc max inhibition (%) @ 50 uM

Point of comparison: CN(C)c1ccc(C(O)(c2ccc(N(C)C)cc2)c2ccc(N(C)C)cc2)cc1 [MMV665941], inhibition at 50 µM 99%. Against it:
- Nc1ccc(-c2nc3cc(Cc4ccc5[nH]c(-c6ccc(N)cc6)nc5c4)ccc3[nH]2)cc1 [MMV665943] — lower, 97%
- O=C(Nc1ccc(F)c(Cl)c1)Nc1ccc(Cl)c(Cl)c1 [MMV665953] — higher, 101%
- COc1cccc(C(=O)NC(c2ccc(C)cc2)c2cc(Cl)c3cccnc3c2O)c1 (stereo not shown) [MMV665969] — higher, 101%
